From ChEMBL document CHEMBL1201862, “PubChem BioAssay data set” (2004)
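Values below derive from 48-hour exposures of cells grown in 96-well plates, with endpoints linearly interpolated between the two concentrations bracketing the appropriate inhibition level. GI50 marks 50% less growth.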 Activity calls are given as the source filed them. No stated cut-off is given here; in the data, active = GI50 up to about 1.1 µM and inactive = higher. *1 amine or outer side, *2 acyl side, *3 side chain or, on linkers, in order; H or OH if unused. Where a SMILES comes first, the peptide text is derived from it. [ ]: non-standard residue; d: D form. The star is where a group is joined. ξ: configuration not given here. NMeY = CN[C@@H](Cc1ccc(O)cc1)C(=O)O; Ethylenediamine = C(CN[*:2])N[*:1]; ξNMeL = CNC(CC(C)C)C(=O)O; Cbz = O=C(OCc1ccccc1)*; Lac = C[C@H](O)C(=O)O; ξA = CC(N)C(=O)O

Key:
Assay in all cases: inhibition of tumour cell growth, NCI panel, 48 h
A549 = test system: A549
COLO 205 = test system: COLO 205
HCT-15 = test system: HCT-15
HL-60 = test system: HL-60
HOP-92 = test system: HOP-92
HT-29 = test system: HT-29
Hs-578T = test system: Hs-578T
IGROV-1 = test system: IGROV-1
KM12 = test system: KM12
M14 = test system: M14
MCF7 = test system: MCF7
MDA-N = test system: MDA-N
MOLT-4 = test system: MOLT-4
OVCAR-3 = test system: OVCAR-3
OVCAR-4 = test system: OVCAR-4
PC-3 = test system: PC-3
RXF 393 = test system: RXF 393
SK-MEL-5 = test system: SK-MEL-5
SNB-19 = test system: SNB-19
T47D = test system: T47D

Row | SMILES | GI50 (A549) | GI50 (COLO 205) | GI50 (HCT-15) | GI50 (HL-60) | GI50 (HOP-92) | GI50 (HT-29) | GI50 (Hs-578T) | GI50 (IGROV-1) | GI50 (KM12) | GI50 (M14) | GI50 (MCF7) | GI50 (MDA-N) | GI50 (MOLT-4) | GI50 (OVCAR-3) | GI50 (OVCAR-4) | GI50 (PC-3) | GI50 (RXF 393) | GI50 (SK-MEL-5) | GI50 (SNB-19) | GI50 (T47D)
1 | COc1ccc(C[C@@H](C(=O)NCCNC(=O)C(CC(C)C)N(C)C(=O)[C@@H]2CCCN2C(=O)[C@H](C)O)N(C)C(=O)[C@@H]2CCCN2C(=O)[C@H](CC(C)C)NC(=O)C(C)NC(=O)OCc2ccccc2)cc1 (stereo not given in full) (Cbz-[ξA]LP[NMeY](Me)-{Ethylenediamine-ξNMeL-Pro-Lac}) | > 100 µM (inactive) | 77.6 µM (inactive) | 82 µM | 38.4 µM (inactive) | 68.9 µM (inactive) | 72.3 µM (inactive) | 12.9 µM (inactive) | > 100 µM (inactive) | > 100 µM (inactive) | > 100 µM (inactive) | 43.9 µM (inactive) | 66.8 µM (inactive) | 29 µM (inactive) | > 100 µM (inactive) | > 100 µM (inactive) | > 100 µM (inactive) | 97.7 µM (inactive) | 33.5 µM (inactive) | > 100 µM (inactive) | 72.6 µM (inactive)
2 | CO[C@H]1Nc2c(ccc(C)c2O)C(=O)N2C=C(/C=C/C(N)=O)C[C@@H]12 [ANTHRAMYCIN METHYL ETHER] | 0.0331 µM (active) | 0.0316 µM (active) | 0.0283 µM | 0.0436 µM (active) | 0.0258 µM (active) | 0.0256 µM (active) | 0.0103 µM (active) | 0.0358 µM (active) | 0.0303 µM (active) | 0.0143 µM (active) | 0.0389 µM (active) | 0.0133 µM (active) | 0.0276 µM (active) | 0.0516 µM (active) | 0.052 µM (active) | 0.0215 µM (active) | 0.0296 µM (active) | 0.0168 µM (active) | < 0.0179 µM (active) | 0.495 µM (active)
